One experiment deals with B. cenocepacia C8963. Description: Biofilm formation in 96-well microtiter dish assay (crystal violet staining, A595). Format: cell-based, Burkholderia cenocepacia. The conditions noted are these: for C8963 biofilm growth in the presence of gNO compared with absence of gNO: 200 ppm gNO; for Average A595 (C8 + NO), biofilm formation: experiment 2. How it is done:
(§1) Objective: To determine if exposure to gaseous nitric oxide (gNO) affects the ability of B. cenocepacia C8963 to form a biofilm in a 96-well microtiter dish assay.
(§2) Methods: B. cenocepacia C8963, a non-mucoid isolate from a cystic fibrosis (CF) patient, and C9343, a mucoid isolate from the same patient, were spotted on Luria Broth agar and grown at 37° C. overnight. Luria broth containing 0.5% (w/v) casamino acids was dispensed into 96-well polypropylene microtiter dishes (100 μl per well) and the wells inoculated with the C8963 or C9343 using a pin-inoculation device. Blank wells were not inoculated. Dishes were incubated in a humidified, closed plastic container for 24 hours at 37° C. (experiment 1) or in the outer chamber of the matrix incubator (a humidified incubator with controlled air flow) for 27 hours at 37° C. (experiment 2). At 24 hours (experiment 1) or 27 hours (experiment 2), one dish was processed for staining of the bacterial biofilms. The remaining dishes were incubated in the inner treatment arms of the matrix incubator at 37° C. in the presence or absence of 200 ppm gNO. One dish for each of the conditions (+gNO or −gNO) was processed for biofilm staining at 32, 36, and 48 hours.
(§3) To stain biofilm growth, planktonic bacteria were removed from the microtitre dishes by discarding media and cells. Biofilms were washed to remove remaining non-adherent bacteria in two successive tap water washes. Water was shaken from the wells and the dishes inverted and tapped vigorously on a stack of paper towels to remove as much water as possible. Adherent growth was stained by adding 125 μlof a 0.1% (w/v) solution of crystal violet to each well and incubating at room temperature for 15 minutes. Crystal violet was discarded as for the previous washes and excess stain was removed in three successive tap-water washes. Excess water was removed by vigorous tapping as before and the stained dishes allowed to air dry.
(§4) To quantitate biofilm formation, 200 μl of 95% ethanol was added to each well, incubated at room temperature for 15 minutes, and 125 μl from each well was removed to a clean flat-bottomed polystyrene microtitre dish. The absorbance at 595 nm was read on a Bio-Rad Model 3550 Microplate Reader. The average reading from “Blank” (uninoculated) wells containing only media was subtracted from each “Test” well. The [Test-Blank] averages and standard errors of the mean (SEM) were calculated for each condition and time.

The next experiment deals with B. cenocepacia C9343. The description is as above. The format is cell-based, Burkholderia cenocepacia. The conditions noted are these: 200 ppm gNO; experiment 1. How it is done: as §1, §2, §3, §4

`[N]=O` [gNO, nitric oxide]: the “Effect on biofilm formation of C8963” value with B. cenocepacia C8963 (200 ppm final concentration of gNO) is listed as “inhibited biofilm formation”. In addition, the “C8963 biofilm growth in the presence of gNO compared with absence of gNO” value is on record as “greater than in the absence of gNO” in the experiment with B. cenocepacia C8963 (at 32 hours, experiments 1 and 2); “significantly lower than in the absence of gNO” in the experiment on B. cenocepacia C8963 (by 36 hours, experiments 1 and 2); “consistently lower” with B. cenocepacia C8963 (remaining time points up to 48 hours, both experiments). The “Average A595 (C8 + NO), biofilm formation” value with B. cenocepacia C8963 (time 27 h, after 27 hours in air, before exposure to 200 ppm gNO) is recorded as 0.076; in the experiment with B. cenocepacia C8963 (time 32 h, 200 ppm gNO from 27 h, 37° C.), 0.282; in the experiment on B. cenocepacia C8963 (time 36 h, 200 ppm gNO from 27 h, 37° C.) it was 0.252; in the experiment on B. cenocepacia C8963 (time 48 h, 200 ppm gNO from 27 h, 37° C.) it was 0.334. Further, the “Effect on biofilm growth of C8963” value in the experiment with B. cenocepacia C8963 (low initial concentrations of gNO) is “enhanced biofilm growth”. The “Induction of biofilm formation by mucoid C9343” value with B. cenocepacia C9343 is on record as “did not induce biofilm formation”.
